Assay [1] addresses Thymidylate synthase (Escherichia coli, UniProt C3SWJ7). The assay can be described thus: Inhibition against thymidylate synthase (TS) in Escherichia coli. The settings on record: read-out: I50.
The test system of the next assay is SW480. In words: cells. The settings on record: Homo sapiens.
The target of assay [2] is Thymidylate synthase (Homo sapiens, UniProt P04818).
Thymidylate synthase (Homo sapiens, UniProt P04818), sequence (P04818 whole entry): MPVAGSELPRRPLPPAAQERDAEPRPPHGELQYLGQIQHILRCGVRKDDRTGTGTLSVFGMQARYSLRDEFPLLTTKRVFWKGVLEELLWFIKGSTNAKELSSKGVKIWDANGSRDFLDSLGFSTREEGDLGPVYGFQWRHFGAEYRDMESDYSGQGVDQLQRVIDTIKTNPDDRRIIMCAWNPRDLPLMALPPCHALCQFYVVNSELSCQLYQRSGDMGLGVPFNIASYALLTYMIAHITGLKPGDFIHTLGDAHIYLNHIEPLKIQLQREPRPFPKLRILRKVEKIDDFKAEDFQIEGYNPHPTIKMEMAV

Thymidylate synthase (Escherichia coli, UniProt C3SWJ7), sequence (C3SWJ7 whole entry): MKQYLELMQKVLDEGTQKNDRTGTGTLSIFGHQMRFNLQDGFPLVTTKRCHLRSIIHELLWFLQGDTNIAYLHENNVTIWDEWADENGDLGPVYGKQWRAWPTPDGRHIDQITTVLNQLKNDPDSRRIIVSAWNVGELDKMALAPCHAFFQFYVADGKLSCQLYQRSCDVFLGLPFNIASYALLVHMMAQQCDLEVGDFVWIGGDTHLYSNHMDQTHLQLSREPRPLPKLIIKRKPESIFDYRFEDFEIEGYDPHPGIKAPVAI

With `Nc1nc(O)c2c(n1)CCc1ccccc1-2`, the IC50 was 7 µM at Thymidylate synthase [1] and greater than 100 µM with SW480. In the case of `Nc1nc2c(c(=O)[nH]1)-c1cc(Cl)ccc1CC2`, the IC50 was 1.6 µM on Thymidylate synthase [1] and 25 µM in the assay on SW480.

As for `Nc1nc2ccc3c([N+](=O)[O-])c(Br)ccc3c2c(=O)[nH]1`, the IC50 on Thymidylate synthase [1] was 104 µM. `O=CNc1nc(O)c2c(ccc3ccc(Br)cc32)n1`: the IC50 on Thymidylate synthase [2] was determined as 0.54 µM; in the assay on SW480, 7 µM. As to `Cc1cc2nc(N)[nH]c(=O)c2c2ccc(Cl)cc12`, the IC50 at Thymidylate synthase [2] came out at 6.9 µM.

Regarding `Nc1nc2c(c(=O)[nH]1)-c1cc(Br)c([N+](=O)[O-])cc1CC2`, the IC50 came out at 97.5 µM at Thymidylate synthase [1] and 12 µM in the assay with SW480.

For the compound `Cc1nc(O)c2c(ccc3c(Br)cccc32)n1`, in the assay with SW480, the IC50 was found to be 50 µM. For `Nc1nc(O)c2c(ccc3cc(Br)c([N+](=O)[O-])cc32)n1`, the IC50 on Thymidylate synthase [1] was 28 µM. Take `Nc1nc2ccc3cc(Cl)ccc3c2c(=O)[nH]1`: the IC50 against Thymidylate synthase [2] came to 45.4 µM. Regarding `COc1ccc2c(c1)CCc1nc(N)nc(O)c1-2`, the IC50 at Thymidylate synthase [1] is 240 µM. As to `Cc1cccc2c1CCc1nc(N)[nH]c(=O)c1-2`, the IC50 on Thymidylate synthase [1] came to 59 µM.

`Oc1nc(NCc2ccccc2)nc2ccc3ccc(Cl)cc3c12` gave an IC50 with SW480 of 12 µM. As for `CC1Cc2nc(N)nc(O)c2-c2ccccc21` (stereo not given), the IC50 at Thymidylate synthase [1] was determined as 23 µM. Consider `Nc1nc2c(c(=O)[nH]1)-c1cccc(Br)c1CC2`, for which the IC50 on Thymidylate synthase [1] is 109 µM. Same read-out and setting: under `Nc1nc(O)c2c(n1)CCc1cc([N+](=O)[O-])ccc1-2` stands 43 µM; under `Nc1nc2ccc3c(Br)c(N)c(Br)cc3c2c(=O)[nH]1`, 25 µM. In the case of `CCSc1ccc2c(c1)-c1c(nc(N)[nH]c1=O)CC2`, the IC50 amounted to 31.7 µM on Thymidylate synthase [1] and 40 µM in the assay with SW480.

`Cc1nc(O)c2c(ccc3c(I)cccc32)n1` displayed an IC50 with SW480 of 50 µM. `Cc1nc2c(c(=O)[nH]1)-c1ccccc1CC2`: the IC50 at Thymidylate synthase [1] is 119 µM; with SW480, greater than 100 µM. Taken in the same sequence, the figures for `Cc1nc(O)c2c(ccc3ccc(Br)cc32)n1` were 6.9 µM and 6 µM. In the case of `Nc1nc(O)c2c(n1)CCc1ccc(I)cc1-2`, the IC50 on Thymidylate synthase [1] is 5 µM; in the assay on SW480, 15 µM. On to `Nc1nc2c(c(=O)[nH]1)-c1ccc(Cl)cc1CC2`, for which, at Thymidylate synthase [1], the IC50 is 334 µM. Regarding `Nc1nc(O)c2c(n1)CCc1ccc(F)cc1-2`, the IC50 was 4 µM on Thymidylate synthase [1] and 80 µM in the assay on SW480.

For the compound `CSc1ccc2c(c1)-c1c(nc(N)[nH]c1=O)CC2`, the IC50 on Thymidylate synthase [1] was determined as 1.2 µM; in the assay with SW480, 60 µM. Turning to `COc1cccc2c1CCc1nc(N)nc(O)c1-2`, at Thymidylate synthase [1], the IC50 was found to be 250 µM. For `Cc1nc(O)c2c(ccc3ccc(Cl)cc32)n1`, the IC50 with SW480 turned out to be 10 µM. The same measure, in the same setting: under `Cc1nc(O)c2c(ccc3c(Cl)cccc32)n1` stands 50 µM. Turning to `Cc1nc(O)c2c(n1)CCc1ccc(F)cc1-2`, the IC50 was 32.8 µM at Thymidylate synthase [1] and greater than 100 µM in the assay with SW480. The matching figures for `Nc1nc2c(c(=O)[nH]1)-c1ccc(F)cc1CC2`: 750 µM and 80 µM. With `Cc1cc2nc(N)[nH]c(=O)c2c2ccccc12`, the IC50 at Thymidylate synthase [1] worked out at 1 µM.

On to `Nc1ccc2c(c1)CCc1nc(N)[nH]c(=O)c1-2`, for which the IC50 at Thymidylate synthase [1] is 89 µM. With `Nc1nc2c(c(=O)[nH]1)-c1cc(Br)c(N)cc1CC2`, the IC50 came out at 2.9 µM at Thymidylate synthase [1] and 15 µM with SW480. As to `C#Cc1ccc2c(c1)-c1c(nc(N)[nH]c1=O)CC2`, the IC50 at Thymidylate synthase [1] came out at 26.3 µM; in the assay with SW480, 35 µM. Taken in the same sequence, the figures for `Cc1nc2c(c(=O)[nH]1)-c1cc(Br)ccc1CC2` were 8.69 µM and 65 µM.

As to `Nc1nc2ccc3c(Cl)cccc3c2c(=O)[nH]1`, on Thymidylate synthase [2], the IC50 was determined as 26 µM. The same measure, in the same setting: the figure for `Nc1nc2ccc3cc(F)cc([N+](=O)[O-])c3c2c(=O)[nH]1` is 34.5 µM; for `Nc1nc2ccc3c(Br)cccc3c2c(=O)[nH]1` it is 8.9 µM. With `Nc1nc(O)c2c(n1)CCc1ccc(Br)cc1-2`, the figures for the IC50 at Thymidylate synthase [1] and in the assay with SW480 were 2 µM and 25 µM, respectively.

`Cc1cc(C)c2ccc3nc(N)[nH]c(=O)c3c2c1`: the IC50 on Thymidylate synthase [1] is 5 µM.

For the origin of these results see ChEMBL document CHEMBL1126757, “Benzoquinazoline inhibitors of thymidylate synthase: enzyme inhibitory activity and cytotoxicity of some 3-amino- and 3-methylbenzo[f]quinazolin-1(2H)-ones” (J Med Chem, 1993).
